How the values were obtained:
rats = test: effect on spontaneous behavior of rats after ip injection (induction of sleep); format: in vivo, rat
Procedure: Synthetic cis-9,10-octadecenoamide was injected (ip) into rats in order to test its effect on spontaneous behavior at different doses: 1 (n=2), 2 (n=2), 5 (n=7), 10 (n=10), 20 (n=2), and 50 (n=2) mg, where n = number of rats tested. […] However, at a threshold of 5 mg and above there was a marked effect consisting of an induction of long-lasting motor quiescence associated with eyes closed, sedated behavior characteristic of normal sleep. Also as with normal sleep, the rats still responded to auditory stimuli with orienting reflex and sustained attention toward the source of stimulation. In addition, motor behavior was impaired. The latency to behavioral sedation following administration was about 4 minutes and subjects were normally active again after 1 hour (5 mg), 2 hour (10 mg), or 2.5 hour (20 mg and 50 mg).
(§1) We have compared cis-9,10-octadecenoamide to vehicle and the synthetic analogs listed in FIG. 1 to estimate the structural specificity of its sleep-inducing potential. […] More particularly, male Sprague-Dawley rats (300 g at the time of surgery) were implanted under halothane anesthesia (2-3%) with a standard set of electrodes for sleep recordings. This included two screw electrodes placed in the parietal bone over the hippocampus to record the subjects electroencephalogram (EEG) and two wire electrodes inserted in the neck musculature to record postural tone through electromyographic activity (EMG). Rats were housed individually with at libitum access to food and water. The dark-light cycle was controlled (12:12, lights on a 10:00 p.m.). One week after the surgery, rats were habituated to the recording conditions for at least three days. Upon the completion of the habituation period, rats received 2 milliliter (ip) of either: vehicle (5% ethanol/saline solution), cis-9,10-octadecenoamide (10 mg), or oleic acid (10 mg). […] Sleep recordings were visually scored and four stages were determined: wakefulness, slow-wave-sleep 1 (SWS1), slow-wave-sleep 2 (SWS2), and rapid eye movement (REM) sleep.

male Sprague-Dawley rats = test: polysomnographic sleep recordings (EEG/EMG) in rats; format: in vivo, rat; settings: 10 mg ip, recorded four hours
Description: as §1
These increases with respect to slow wave sleep (SWS) were at the expense of waking.

[1] = molecular target: T1, recombinant expressed rat FAAH (Rattus norvegicus, UniProt P97612); test: FAAH hydrolysis assays with 14C-labeled fatty acid amide substrates (TLC, scintillation counting); format: biochemical; settings: for Rate of Hydrolysis: 35 μg transfected COS-7 cell protein, 5 minutes, 37° C.
T1 construct: expressed in transfected cells; host or cells: COS-7 cells, transient, pcDNA3; dounce-homogenised cell extract
T1 sequence (P97612 1-579): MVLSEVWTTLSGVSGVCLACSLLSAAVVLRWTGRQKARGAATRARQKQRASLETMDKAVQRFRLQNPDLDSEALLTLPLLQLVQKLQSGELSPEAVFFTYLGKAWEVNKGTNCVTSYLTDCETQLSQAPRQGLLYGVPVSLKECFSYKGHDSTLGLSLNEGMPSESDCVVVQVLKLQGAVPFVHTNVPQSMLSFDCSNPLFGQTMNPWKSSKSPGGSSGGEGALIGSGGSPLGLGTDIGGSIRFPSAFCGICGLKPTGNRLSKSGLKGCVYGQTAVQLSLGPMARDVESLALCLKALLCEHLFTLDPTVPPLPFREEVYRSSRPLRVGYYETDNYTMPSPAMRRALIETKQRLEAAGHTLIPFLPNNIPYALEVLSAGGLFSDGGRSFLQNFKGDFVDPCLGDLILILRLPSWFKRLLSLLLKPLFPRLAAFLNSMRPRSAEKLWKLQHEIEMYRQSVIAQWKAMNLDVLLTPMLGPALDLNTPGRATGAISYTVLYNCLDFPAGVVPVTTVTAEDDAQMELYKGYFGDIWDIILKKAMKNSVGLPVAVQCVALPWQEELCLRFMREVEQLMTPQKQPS
Procedure: Therefore, COS-7 cells transfected with the rat FAAH cDNA were assayed for anandamide hydrolase activity. To assess the enzymatic activity of the expressed recombinant fatty acid amide hydrolases of this invention on labeled anandamide, the following enzymatic assay was performed. ^14C-anandamide was synthesized as follows: 12.5 μCi (specific activity of 50 μCi/μM) of ^14C arachidonic acid (Moravek Biochemicals) was dissolved in 100 μl CH2Cl2, cooled to 0° C., and treated with excess oxalyl chloride. The reaction mixture was stirred at 25° C. for 6 hours, after which time the solvent was evaporated. The remaining residue was cooled to 0° C., treated with a large excess of ethanolamine, and stirred at 25° C. for 15 minutes. The reaction mixture was then partitioned between ethyl acetate and 2 M HCl, and the organic layer was washed with water and then evaporated to dryness. The resulting ^14C-anandamide was diluted with unlabeled anandamide to a final specific activity of 5 μCi/μM in ethanol. Approximately 1 μCi of ^14C-anandamide and 20 μl of dounce homogenized COS-7 cell extract were used for each anandamide hydrolase assay as detailed above for the oleamide hydrolase assays. Briefly, FAAH hydrolysis assays were conducted in triplicate with 100 μM substrate, 35 μg of rat transfected COS-7 cell protein for 5 minutes at 37° C. (except in the case of stearic amide, where due to low solubility, 20 μM substrate comparison to oleamide were conducted). Products were separated on TLC as described previously, scraped into scintillation fluid, and radioactivity was quantitated by scintillation counting. Substrate hydrolysis in the presence of equal amounts of untransfected COS-7 cell protein extract served as background control in all cases and was substracted from FAAH hydrolysis rates to give the data as presented below.
To further assess the substrate specificity spectrum of enyzmatic hydolytic activity of the recombinant expressed proteins of this invention, other ^14C-labeled fatty acid amides were synthesized as described in Section B6 and above for ^14C-oleamide, with the exception of anandamide as described.
Where indicated in the table the anandamide and oleamide hydrolysis rates are considered to be 100% of FAAH activity to which other fatty acid amide hydrolysis rates are compared.

SMILES: CCCCCCCC/C=C\CCCCCCCC(N)=O [cis-9,10-octadecenoamide, Cis-9,10-octadecenoamide]
- duration of the biological (sleep-inducing) effect (rats; 10 mg per rat): two hours
- threshold dose for induction of long-lasting motor quiescence with eyes closed, sedated behavior (rats; rats, ip): 5 mg
- effect on spontaneous behavior (rats; rats, ip, lower doses 1 and 2 mg): no overt effect on spontaneous behavior
- distribution of REM sleep (male Sprague-Dawley rats): does not seem to be altered
- mean duration of the SWS individual periods compared to vehicle controls (male Sprague-Dawley rats): increase
- total time of slow wave sleep (SWS) compared to vehicle controls (male Sprague-Dawley rats): increase in the total time of slow wave sleep (SWS)
- rate difference between hydrolysis of oleamide and stearic amide [1]: nearly twenty fold
- % of FAAH activity (oleamide hydrolysis rate = 100%) ([1]; 20 μM substrate): 100%
- Rate of Hydrolysis ([1]; 20 μM substrate): 41 ± 2 nmol/min/mg
- % of FAAH activity (anandamide hydrolysis rate = 100%) ([1]; 100 μM substrate): 72.6%
- Rate of Hydrolysis ([1]; 100 μM substrate): 242 ± 20 nmol/min/mg
